Marks after values point to notes of the source that are not given here.
Experiments:
Format in all cases: in vivo
Fusarium graminearum = assay: whole plant or invertebrate
[1] = system: Puccinia recondite f sp. tritici; assay: Test B: wheat leaf rust, test suspension sprayed on wheat seedlings, disease rating;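 note: 200 ppm unless marked * meaning 40 ppm or ** meaning 10 ppm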
Septoria nodorum = assay: Test D: wheat glume blotch, test suspension sprayed on wheat seedlings, disease rating; conditions: 200 ppm test suspension
Pythium aphanidermatum = assay: Test L: bluegrass pythium blight, test suspension sprayed on bluegrass seedlings, disease rating;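 note: 200 ppm unless marked * meaning 40 ppm or ** meaning 10 ppm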
Botrytis cinerea = assay: Test H: tomato Botrytis, test suspension sprayed on tomato seedlings, disease rating; conditions: 200 ppm test suspension
Rhizoctonia oryzae = assay: Test I: turf brown patch, test suspension sprayed on creeping bent grass seedlings, disease rating; conditions: 200 ppm test suspension
Phytophthora infestans = assay: whole plant or invertebrate
Alternaria solani = assay: Test G: tomato early blight, test suspension sprayed on seedlings, disease rating;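 note: 200 ppm unless marked * meaning 40 ppm or ** meaning 10 ppm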
Septoria tritici = assay: Test E: wheat leaf blotch, test suspension sprayed on wheat seedlings, disease rating;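 note: 200 ppm unless marked * meaning 40 ppm or ** meaning 10 ppm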
[2] = system: Erysiphe graminis f. sp. tritici; assay: Test A: wheat powdery mildew, test suspension sprayed on wheat seedlings, disease rating; conditions: 200 ppm test suspension, 100 = 100% disease control, 0 = no control
[3] = system: Colletotrichum orbiculare; assay: Test F: cucumber Colletotrichum anthracnose, test suspension sprayed on cucumber seedlings, disease rating; conditions: for Test F disease control rating: 200 ppm test suspension

Row | SMILES | Test D disease control rating (Septoria nodorum) [%] | Test H disease control rating (Botrytis cinerea) [%] | Test A disease control rating [2] [%] | Test B disease control rating ([1]; 200 ppm test suspension) [%] | Test E disease control rating (Septoria tritici; 200 ppm test suspension) [%] | Test C disease control rating (Fusarium graminearum; 200 ppm test suspension) [%] | Test L disease control rating (Pythium aphanidermatum; 200 ppm test suspension) [%] | Test J disease control rating (Phytophthora infestans; 200 ppm test suspension) [%] | also measured
1 | CC(=O)N1CCCc2c(-c3ccnc(NC4CCOCC4)n3)c(-c3ccc(F)cc3)nn21 [Compound 139] | 99 | 0 | 73 |  |  |  |  |  | Test C disease control rating (Fusarium graminearum; 40 ppm test suspension (*)): 95* %; Test B disease control rating ([1]; 40 ppm test suspension (*)): 90* %; Test L disease control rating (Pythium aphanidermatum; 40 ppm test suspension (*)): 100* %; Test I disease control rating (Rhizoctonia oryzae): 40%; Test J disease control rating (Phytophthora infestans; 40 ppm test suspension (*)): 93* %; Test G disease control rating (Alternaria solani; 40 ppm test suspension (*)): 99* %; Test E disease control rating (Septoria tritici; 40 ppm test suspension (*)): 29* %
2 | CC(CN1C(=O)c2ccccc2C1=O)Nc1nccc(-c2c(-c3ccc(F)cc3)nn3c2CCCC3)n1 (stereo not shown) [compound 71] | 64 | 0 | 0 |  |  |  |  |  | Test C disease control rating (Fusarium graminearum; 40 ppm test suspension (*)): 0* %; Test B disease control rating ([1]; 40 ppm test suspension (*)): 0* %; Test L disease control rating (Pythium aphanidermatum; 40 ppm test suspension (*)): 97* %; Test F disease control rating [3]: 0%; Test J disease control rating (Phytophthora infestans; 40 ppm test suspension (*)): 9* %; Test G disease control rating (Alternaria solani; 40 ppm test suspension (*)): 0* %; Test E disease control rating (Septoria tritici; 40 ppm test suspension (*)): 33* %
3 | COc1cc(Nc2nccc(-c3c(-c4ccccc4)nn4c3CCCC4)n2)ccc1F [compound 182] | 97 | 81 | 92 | 77 | 100 |  |  |  | 
4 | c1cc(-c2c(-c3ccsc3)nn3c2CCCC3)nc(NC2CC2)n1 [compound 180] | 98 | 96 | 79 | 99 | 100 | 96 |  |  | 
5 | CCNc1nccc(-c2c(-c3ccccc3)nn3c2COCC3)n1 [compound 183] | 97 | 81 |  | 100 | 100 | 99 |  |  | 
6 | c1ccc(-c2nn3c(c2-c2ccnc(NC4CC4)n2)CCCC3)cc1 [Compound 27, N-cyclopropyl-4-(4,5,6,7-tetrahydro-2-phenylpyrazolo[1,5-a]pyridin-3-yl)-2-pyrimidinamine] |  |  |  |  |  |  |  |  | pest or weed control at 40 ppm (Fusarium graminearum; Fusarium graminearum, in Triticum aestivum, 192 h, read-out: Test C disease control rating): 99%; pest or weed control at 40 ppm ([1]; Puccinia, 192 h, 40 ppm test suspension (*)): 95%; pest or weed control at 200 ppm (Septoria nodorum; Parastagonospora nodorum, 216 h): 98%; pest or weed control at 200 ppm (Pythium aphanidermatum; Pythium aphanidermatum, 120 h, 200 ppm test suspension): 98%; pest or weed control at 10 ppm ([3]; Colletotrichum orbiculare, 144 h, 10 ppm test suspension (**)): 66%; pest or weed control at 200 ppm (Phytophthora infestans; Phytophthora infestans, in Solanum lycopersicum, 120 h, read-out: Test J disease control rating): 97%; pest or weed control at 10 ppm (Alternaria solani; Alternaria solani, 168 h, 10 ppm test suspension (**)): 95%; pest or weed control at 200 ppm (Septoria tritici; Zymoseptoria tritici, 504 h, 200 ppm test suspension): 97%; pest or weed control at 200 ppm ([2]; Blumeria graminis, 192 h): 96%
7 | Fc1ccc(-c2nn3c(c2-c2ccnc(NC4CCOCC4)n2)COCC3)cc1 [compound 129] | 99 | 84 | 0 |  |  |  |  |  | Test C disease control rating (Fusarium graminearum; 40 ppm test suspension (*)): 100* %; Test B disease control rating ([1]; 40 ppm test suspension (*)): 98* %; Test L disease control rating (Pythium aphanidermatum; 40 ppm test suspension (*)): 100* %; Test I disease control rating (Rhizoctonia oryzae): 53%; Test J disease control rating (Phytophthora infestans; 40 ppm test suspension (*)): 95* %; Test G disease control rating (Alternaria solani; 40 ppm test suspension (*)): 95* %; Test E disease control rating (Septoria tritici; 40 ppm test suspension (*)): 81* %
8 | CCCNc1nccc(-c2c(-c3ccccc3)nn3c2CCCC3)n1 [compound 179] | 99 |  | 75 | 100 | 100 | 100 |  |  | Test I disease control rating (Rhizoctonia oryzae): 89%
9 | CNc1nccc(-c2c(-c3cccc(C)c3)nn3c2CCCC3)n1 [compound 187] | 92 | 92 | 79 | 99 | 99 |  |  |  | 
10 | Cc1cccc(-c2nn3c(c2-c2ccnc(NC4CC4)n2)CCCC3)c1 [compound 181] | 100 | 94 | 97 | 100 | 100 | 100 |  |  | Test G disease control rating (Alternaria solani; 200 ppm test suspension): 99%
11 | CNc1nccc(-c2c(-c3ccccc3)nn3c2CCCC3)n1 [compound 142] | 98 | 53 | 95 | 100 | 100 | 97 |  |  | Test G disease control rating (Alternaria solani; 200 ppm test suspension): 0%
12 | CC(C)Nc1nccc(-c2c(-c3ccc(F)cc3)nn3c2COCC3)n1.Cl [compound 128] | 99 | 89 | 0 |  |  |  |  |  | Test C disease control rating (Fusarium graminearum; 40 ppm test suspension (*)): 99* %; Test B disease control rating ([1]; 40 ppm test suspension (*)): 96* %; Test L disease control rating (Pythium aphanidermatum; 40 ppm test suspension (*)): 100* %; Test F disease control rating [3]: 99%; Test J disease control rating (Phytophthora infestans; 40 ppm test suspension (*)): 100* %; Test G disease control rating (Alternaria solani; 40 ppm test suspension (*)): 99* %; Test E disease control rating (Septoria tritici; 40 ppm test suspension (*)): 94* %
13 | CCCNc1nccc(-c2c(-c3cccc(C)c3)nn3c2CCCC3)n1 [compound 185] | 99 | 99 | 74 | 97 | 97 |  |  |  | Test G disease control rating (Alternaria solani; 200 ppm test suspension): 95%
14 | CC(C)Nc1nccc(-c2c(-c3cccc(F)c3)nn3c2CCC3)n1 [compound 102] | 97 |  | 73 | 92 | 100 | 100 | 99 | 96 | 
15 | Fc1cc(F)cc(-c2nn3c(c2-c2ccnc(NC4CC4)n2)CCC3)c1 [compound 104] | 0 |  | 0 | 0 | 88 | 55 | 91 | 88 | 
16 | CCCNc1nccc(-c2c(-c3ccccc3)nn3c2COCC3)n1 [compound 184] | 90 | 80 | 61 | 99 | 100 | 99 |  |  | Test G disease control rating (Alternaria solani; 200 ppm test suspension): 98%
17 | C[C@H](CO)Nc1nccc(-c2c(-c3ccc(F)cc3)nn3c2CCOC3)n1 [compound 113] | 78 |  | 0 | 97 | 91 | 99 | 100 | 96 | 
18 | COCC(C)Nc1nccc(-c2c(-c3ccccc3F)nn3c2CCC3)n1 (stereo not shown) [compound 96] | 0 |  | 0 | 19 | 62 | 96 | 83 | 98 | 
19 | CC(CO)Nc1nccc(-c2c(-c3ccc(F)cc3)nn3c2Cc2ccccc2C3)n1 (stereo not shown) [compound 140] | 0 |  | 0 | 90 | 49 | 98 | 99 | 26 | 
20 | CCNc1nccc(-c2c(-c3ccccc3)nn3c2CCCC3)n1 [compound 143] | 100 |  | 96 | 100 | 100 | 99 |  |  | Test I disease control rating (Rhizoctonia oryzae): 86%
21 | Fc1ccccc1-c1nn2c(c1-c1ccnc(NC3CC3)n1)CCC2 [compound 99] | 89 |  | 0 | 94 | 98 | 99 | 100 | 99 | 
22 | CCNc1nccc(-c2c(-c3cccc(C)c3)nn3c2CCCC3)n1 [compound 186] | 99 | 99 | 79 | 99 | 95 |  |  |  | Test G disease control rating (Alternaria solani; 200 ppm test suspension): 99%
23 | CONc1nccc(-c2c(-c3ccc(F)cc3)nn3c2CCCC3)n1 [compound 65] | 31 |  | 28 | 65 | 98 | 87 | 99 | 43 | 
24 | c1cc(-c2c(-c3ccsc3)nn3c2CCCC3)nc(NC2CC2)n1 [compound 61] | 99 |  | 79 | 94 | 98 | 98 | 99 | 97 | 
25 | CC(C)Nc1nccc(-c2c(-c3ccccc3F)nn3c2CCCC3)n1 [compound 36] | 96 |  | 0 | 91 | 96 | 99 | 99 | 90 | 

— patent publication US8288375B2, “Fungicidal bicyclic pyrazoles” (E.I. du Pont de Nemours and Company, priority 2007, dated 2012)
